Columns and labels:
[1] = molecular target: Neuropeptide Y receptor type 5 (Homo sapiens, UniProt Q15761); experiment: Radioligand binding assay (human NPY5R, HEK293); format: cell-based
[2] = molecular target: Neuropeptide Y receptor type 4 (Homo sapiens, UniProt P50391); experiment: Radioligand binding assay (human NPY4R, CHO cells); format: cell-based
[3] = molecular target: Neuropeptide Y receptor type 5 (Rattus norvegicus, UniProt Q63634); experiment: Radioligand binding assay (rat NPY5R, CHO cells); format: cell-based
[4] = molecular target: T1, Neuropeptide Y receptor type 2 (Homo sapiens, UniProt P49146); experiment: Radioligand binding assay (NPY2R, BHK); format: cell-based, BHK-21
T1 sequence (P49146 whole entry): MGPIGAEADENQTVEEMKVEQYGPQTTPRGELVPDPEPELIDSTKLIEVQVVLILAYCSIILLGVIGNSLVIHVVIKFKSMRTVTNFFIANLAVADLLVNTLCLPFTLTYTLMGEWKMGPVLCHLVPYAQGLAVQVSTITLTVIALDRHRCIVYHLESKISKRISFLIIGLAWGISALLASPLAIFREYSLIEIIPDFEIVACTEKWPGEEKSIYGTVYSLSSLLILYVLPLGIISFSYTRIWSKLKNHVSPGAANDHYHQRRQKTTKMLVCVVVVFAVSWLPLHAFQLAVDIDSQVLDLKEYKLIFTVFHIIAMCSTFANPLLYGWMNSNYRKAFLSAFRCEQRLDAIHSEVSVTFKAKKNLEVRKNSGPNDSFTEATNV

[5] = molecular target: T1, Neuropeptide Y receptor type 2; experiment: Radioligand binding assay (NPY2R, SMS-KAN cells); format: cell-based
[6] = molecular target: Neuropeptide Y receptor type 4 (Rattus norvegicus, UniProt Q63447); experiment: Radioligand binding assay (rat NPY4R, CHO cells); format: cell-based
Chain of Neuropeptide Y receptor type 4 (Rattus norvegicus, UniProt Q63447) (Q63447 whole entry): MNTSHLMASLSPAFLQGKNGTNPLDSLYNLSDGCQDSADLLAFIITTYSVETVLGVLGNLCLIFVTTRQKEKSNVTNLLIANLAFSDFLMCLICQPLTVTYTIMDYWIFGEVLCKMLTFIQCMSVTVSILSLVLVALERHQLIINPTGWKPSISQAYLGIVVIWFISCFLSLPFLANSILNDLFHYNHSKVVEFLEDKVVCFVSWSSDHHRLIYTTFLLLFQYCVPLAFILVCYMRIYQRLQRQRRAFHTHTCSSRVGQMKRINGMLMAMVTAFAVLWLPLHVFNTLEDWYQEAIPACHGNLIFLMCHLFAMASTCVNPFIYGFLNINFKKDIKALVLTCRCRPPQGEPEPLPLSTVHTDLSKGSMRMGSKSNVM

Chain of Neuropeptide Y receptor type 5 (Homo sapiens, UniProt Q15761) (Q15761 whole entry): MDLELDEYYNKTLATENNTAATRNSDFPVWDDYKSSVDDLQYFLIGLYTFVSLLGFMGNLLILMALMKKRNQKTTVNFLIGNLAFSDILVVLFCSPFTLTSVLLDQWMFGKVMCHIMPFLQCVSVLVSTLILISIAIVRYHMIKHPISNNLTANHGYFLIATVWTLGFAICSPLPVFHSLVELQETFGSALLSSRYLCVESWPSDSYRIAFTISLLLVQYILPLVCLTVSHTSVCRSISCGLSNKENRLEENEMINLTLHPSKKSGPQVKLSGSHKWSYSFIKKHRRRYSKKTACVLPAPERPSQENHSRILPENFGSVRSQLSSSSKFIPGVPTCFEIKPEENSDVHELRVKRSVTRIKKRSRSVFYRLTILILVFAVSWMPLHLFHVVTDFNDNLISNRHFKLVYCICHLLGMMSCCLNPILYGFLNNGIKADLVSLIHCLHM
Chain of Neuropeptide Y receptor type 4 (Homo sapiens, UniProt P50391) (P50391 whole entry): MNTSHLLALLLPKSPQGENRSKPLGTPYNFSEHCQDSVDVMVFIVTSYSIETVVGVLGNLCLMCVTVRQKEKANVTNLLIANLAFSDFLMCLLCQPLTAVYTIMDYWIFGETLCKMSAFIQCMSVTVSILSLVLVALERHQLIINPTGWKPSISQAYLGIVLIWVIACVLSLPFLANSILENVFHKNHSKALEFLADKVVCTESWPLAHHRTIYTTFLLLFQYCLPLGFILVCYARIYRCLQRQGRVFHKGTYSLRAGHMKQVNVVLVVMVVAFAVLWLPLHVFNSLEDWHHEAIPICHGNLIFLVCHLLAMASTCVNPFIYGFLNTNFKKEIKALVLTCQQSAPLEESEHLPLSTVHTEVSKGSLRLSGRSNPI
Chain of Neuropeptide Y receptor type 5 (Rattus norvegicus, UniProt Q63634) (Q63634 whole entry): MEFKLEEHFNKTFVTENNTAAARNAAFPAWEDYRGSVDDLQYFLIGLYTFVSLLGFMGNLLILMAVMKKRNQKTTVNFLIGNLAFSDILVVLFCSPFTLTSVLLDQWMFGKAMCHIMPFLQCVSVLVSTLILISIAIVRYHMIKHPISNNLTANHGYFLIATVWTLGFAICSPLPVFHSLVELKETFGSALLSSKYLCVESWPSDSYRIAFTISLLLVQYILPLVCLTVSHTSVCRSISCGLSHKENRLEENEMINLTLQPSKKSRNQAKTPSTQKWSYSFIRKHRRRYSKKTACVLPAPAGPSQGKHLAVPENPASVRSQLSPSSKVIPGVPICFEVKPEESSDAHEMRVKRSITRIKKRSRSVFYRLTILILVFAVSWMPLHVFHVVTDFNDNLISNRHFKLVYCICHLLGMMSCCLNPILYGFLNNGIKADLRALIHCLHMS

In the case of `N=C(N)NCCC[C@H](NC(=O)C(c1ccccc1)c1ccccc1)C(=O)NCc1ccc(CNC(N)=O)cc1`, the IC50 [1] is reported as 28 µM (not active), the IC50 [2] is reported as 24 µM (not active) and the IC50 [3] is reported as 23 µM (not active). The IC50 [4] was > 10 µM (not active), the IC50 [5] was > 10 µM (not active) and the IC50 [6] was > 10 µM (not active).
